In ChEMBL document CHEMBL1201862, “PubChem BioAssay data set” (2004):
The source made the active and inactive calls.

Tests used:
[1] = molecular target: 5-hydroxytryptamine receptor 2A (Mus musculus, UniProt P35363); assay type: functional, cell-based;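 further: CHO-K1 cells with tagged receptor and beta-arrestin; agonist potency measured as compound-induced activation of the receptor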
[2] = Luminescence Cell-Based Dose Response HTS to Identify Activators of Luciferase Translation or Activity in H4 […] Cells. [Related pubchem assays: 1829 (Project Summary), 1814 (Primary HTS)]; assay type: functional
[3] = system: H4; assay: Luminescence Cell-Based Dose Response HTS to Identify Activators of 5'UTR Stem-Loop Driven Prion Protein mRNA Translation in H4 Neuroglioblastoma Cells. [Related pubchem assays: 1829 (Project Summary), 1814 (Primary HTS)]; assay type: functional; details: Homo sapiens
[4] = molecular target: Mu-type opioid receptor (Homo sapiens, UniProt P35372); assay type: functional, cell-based;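 further: U2OS cells with beta-arrestin recruitment to OPRM1 by beta-gal complementation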
[5] = Luminescence Cell-Based Dose Confirmation HTS to Identify Activators of 5'UTR Stem-Loop Driven Alpha-Synuclein mRNA Translation in H4 Neuroglioblastoma Cells. [Related pubchem assays: 1829 (Project Summary), 1814 (Primary HTS)]; assay type: functional
[6] = intracellular Trypanosoma cruzi inhibitors in host cells – cell-based, plate reader, cherry-pick samples, set 3, dose response (AID 651818); assay type: functional;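 further: compounds incubated with infected cells for about four days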
[7] = molecular target: Beta-galactosidase (Escherichia coli, UniProt Q8VNN2); assay: Dose response counterscreen for EBI2 assay utilizing the enzyme, b-galactosidase.; assay type: functional
[8] = molecular target: Glucose-6-phosphate 1-dehydrogenase (Homo sapiens, UniProt P11413); assay: inhibition of Homo sapiens G6PD, dose series – biochemical, fluorescence, selectivity assay for P. falciparum G6PD inhibitor project, dose response (AID 504792); assay type: functional
[9] = molecular target: T1, Fatty acid synthase (Homo sapiens, UniProt P49327); assay: inhibition of human FAS-TE enzyme activity – biochemical, kinetic fluorescence intensity, dose response (AID 624326); assay type: functional;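 further: rate of fluorescence rise from hydrolysis of a fluorogenic O-methyl fluorescein ester substrate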
[10] = molecular target: T1, Fatty acid synthase; assay: inhibition of human FAS-TE enzyme activity – biochemical, endpoint fluorescence intensity, uHTS hits, dose response (AID 624327); assay type: functional;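 further: fluorescence from hydrolysis of an O-methyl fluorescein acyl ester substrate by the enzyme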
[11] = molecular target: T2, Probable nicotinate-nucleotide adenylyltransferase (Staphylococcus aureus (strain N315), UniProt P65502); assay type: functional, Staphylococcus aureus subsp. aureus N315;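 on IC50 Mean: confirmatory dose-response retesting of NadD inhibitor hits first found in an ultra-high-throughput screen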
[12] = molecular target: T2, Probable nicotinate-nucleotide adenylyltransferase; assay type: functional, Staphylococcus aureus subsp. aureus N315; details: read-out: IC50_Mean
[13] = molecular target: Genome polyprotein (dengue virus type 2, UniProt P29990); assay: flavivirus cap methylation enzyme inhibition – biochemical, confirmation dose response, primary screen (AID 588689); assay type: functional
[14] = molecular target: ATP-dependent molecular chaperone HSP82 (Candida albicans (strain WO-1) (Yeast), UniProt C4YTQ8); assay: steroid-induced GRE reporter decrease in yeast – S. cerevisiae, luminescence, Hsp90 inhibitor project, dose response (AID 2400); assay type: functional, cell-based;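 further: beta-galactosidase luminescence from glucocorticoid response element reporter as proxy for Hsp90 function; inhibitor potency where signal loss means Hsp90 inhibition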
[15] = system: Streptococcus sp. 'group A'; assay: Streptococcus pyogenes SK(-)GAS viability under kanamycin – luminescence, BacTiterGlo, confirmation, counter-screen for streptokinase expression inhibitor project, dose response (AID 1900); assay type: functional, organism-based
[16] = system: Vero; assay: cells; assay type: functional; details: Chlorocebus sabaeus
[17] = molecular target: T3, Serine/threonine-protein phosphatase (Candida dubliniensis (strain CD36 / CBS 7987 / NCPF 3949 / NRRLY-17841) (Yeast), UniProt B9W6M3); assay: blockers of CaCl2-induced CDRE-lacZ signaling – S. cerevisiae, luminescence, secondary, dose response (AID 2388); assay type: functional, cell-based;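 further: yeast reporter cells carrying a calcineurin-responsive lacZ construct stimulated with calcium chloride; luminescent beta-galactosidase reporter signal in whole cells rather than isolated phosphatase activity; potency for inhibition where a drop in reporter signal means calcineurin blockade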
T3 sequence (B9W6M3 whole entry): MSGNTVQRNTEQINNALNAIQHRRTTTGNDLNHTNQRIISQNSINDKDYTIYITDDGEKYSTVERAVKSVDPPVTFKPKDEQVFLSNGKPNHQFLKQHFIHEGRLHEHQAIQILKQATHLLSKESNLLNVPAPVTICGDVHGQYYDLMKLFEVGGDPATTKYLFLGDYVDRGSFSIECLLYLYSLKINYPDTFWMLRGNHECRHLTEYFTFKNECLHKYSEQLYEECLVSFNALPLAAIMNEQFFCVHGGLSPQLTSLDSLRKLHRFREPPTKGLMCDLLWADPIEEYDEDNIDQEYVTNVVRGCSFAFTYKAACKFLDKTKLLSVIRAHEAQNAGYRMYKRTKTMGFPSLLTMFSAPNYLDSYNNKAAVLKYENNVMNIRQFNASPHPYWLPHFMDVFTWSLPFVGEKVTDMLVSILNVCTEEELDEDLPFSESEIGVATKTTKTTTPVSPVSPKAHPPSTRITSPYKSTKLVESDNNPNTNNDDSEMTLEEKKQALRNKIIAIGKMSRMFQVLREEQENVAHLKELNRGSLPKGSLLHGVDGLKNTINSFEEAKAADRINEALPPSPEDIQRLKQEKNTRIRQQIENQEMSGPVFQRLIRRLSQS

[18] = NIH-3T3 fibroblast cytotoxicity, dose response, cytotoxicity control, cell-based, fluorescence, Alamar Blue, secondary assay (AID 2327); assay type: functional;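 further: NIH-3T3 mouse fibroblasts cultured with fluconazole at 8 µg/mL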
[19] = fluconazole-exposed Candida albicans growth modulators – fluorescence, retest, confirmation (AID 2467); assay type: functional, cell-based
[20] = system: Streptococcus; assay: GAS UMAA2166 growth inhibition – luminescence, BacTiterGlo, counter-screen for streptokinase expression inhibitor project, dose response (AID 1915); assay type: functional, organism-based;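 further: potency for reduction of bacterial viability or growth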
[21] = cAMP pathway inhibition in counterscreen cell line – TR-FRET cAMP detection, counter-screen for MC4R biased antagonist project, dose response (AID 602305); assay type: functional, cell-based;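 further: U2OS cells stimulated with forskolin near its EC80 as the cAMP inducer; potency is for inhibition of forskolin-stimulated cAMP signaling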
[22] = molecular target: Melanocortin receptor 4 (Homo sapiens, UniProt P32245); assay: inhibitors of MC4R cAMP signaling – cell-based, TR-FRET, biased antagonists, dose response (AID 602298); assay type: functional;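 further: antagonist potency against agonist-stimulated cAMP production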
[23] = molecular target: T4, Protein skinhead-1 (Caenorhabditis elegans, UniProt P34707); assay type: functional
T4 sequence (P34707 whole entry): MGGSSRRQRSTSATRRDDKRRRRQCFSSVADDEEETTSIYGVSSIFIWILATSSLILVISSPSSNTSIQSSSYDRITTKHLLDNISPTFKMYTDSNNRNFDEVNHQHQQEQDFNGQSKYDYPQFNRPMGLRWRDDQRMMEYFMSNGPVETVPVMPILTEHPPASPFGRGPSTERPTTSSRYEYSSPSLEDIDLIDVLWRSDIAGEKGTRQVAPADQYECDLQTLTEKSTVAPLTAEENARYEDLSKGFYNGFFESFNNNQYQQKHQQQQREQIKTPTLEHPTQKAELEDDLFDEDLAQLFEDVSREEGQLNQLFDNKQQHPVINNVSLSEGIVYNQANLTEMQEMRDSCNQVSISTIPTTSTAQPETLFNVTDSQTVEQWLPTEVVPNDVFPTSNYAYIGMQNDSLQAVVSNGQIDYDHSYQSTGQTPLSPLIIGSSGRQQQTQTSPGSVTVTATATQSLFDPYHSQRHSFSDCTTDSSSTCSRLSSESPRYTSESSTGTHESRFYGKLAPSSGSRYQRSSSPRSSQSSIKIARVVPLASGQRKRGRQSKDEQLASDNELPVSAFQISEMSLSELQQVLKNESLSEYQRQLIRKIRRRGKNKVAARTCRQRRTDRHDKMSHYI

[24] = NIH3T3 cell viability loss – ATP luminescence, mouse fibroblasts, counter-screen, dose response (AID 2010); assay type: functional, cell-based;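 further: cells exposed to compound for about 90 hours before reading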
[25] = Trypanosoma cruzi growth suppression in host cells – NIH3T3 host cells, beta-gal luminescence, confirmation (AID 2044); assay type: functional, cell-based;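 further: intracellular parasites grown in NIH/3T3 mouse fibroblasts as host cells; luminescent beta-galactosidase reporter signal from transgenic T. cruzi replicating inside host cells; inhibitors lower the luminescence signal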
[26] = molecular target: T5, Rac GTPase-activating protein 1 (Homo sapiens, UniProt Q9H0H5); assay: blockers of MgcRacGAP-driven Rac1 GTP hydrolysis – biochemical, ADP Hunter fluorescence, primary and confirmatory, confirmation (AID 624330); assay type: functional
T5 sequence (Q9H0H5 whole entry): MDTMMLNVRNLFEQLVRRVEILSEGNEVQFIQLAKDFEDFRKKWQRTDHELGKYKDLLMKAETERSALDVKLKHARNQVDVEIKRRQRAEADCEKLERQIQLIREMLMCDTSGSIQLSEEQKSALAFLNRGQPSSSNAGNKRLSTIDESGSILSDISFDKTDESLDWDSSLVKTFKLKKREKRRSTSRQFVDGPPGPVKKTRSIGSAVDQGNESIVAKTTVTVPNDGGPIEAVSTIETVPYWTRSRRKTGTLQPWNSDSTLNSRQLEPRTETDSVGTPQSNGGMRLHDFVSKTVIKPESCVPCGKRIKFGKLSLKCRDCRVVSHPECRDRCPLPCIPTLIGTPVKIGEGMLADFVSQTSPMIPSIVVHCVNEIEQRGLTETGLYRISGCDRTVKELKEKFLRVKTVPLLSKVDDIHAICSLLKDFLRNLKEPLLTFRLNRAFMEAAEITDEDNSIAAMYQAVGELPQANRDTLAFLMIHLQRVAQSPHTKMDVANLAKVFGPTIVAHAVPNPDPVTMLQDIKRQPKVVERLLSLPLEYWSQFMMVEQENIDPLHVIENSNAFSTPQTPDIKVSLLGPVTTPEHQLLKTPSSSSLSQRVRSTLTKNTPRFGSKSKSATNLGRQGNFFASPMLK

5-hydroxytryptamine receptor 2A, sequence (P35363 whole entry): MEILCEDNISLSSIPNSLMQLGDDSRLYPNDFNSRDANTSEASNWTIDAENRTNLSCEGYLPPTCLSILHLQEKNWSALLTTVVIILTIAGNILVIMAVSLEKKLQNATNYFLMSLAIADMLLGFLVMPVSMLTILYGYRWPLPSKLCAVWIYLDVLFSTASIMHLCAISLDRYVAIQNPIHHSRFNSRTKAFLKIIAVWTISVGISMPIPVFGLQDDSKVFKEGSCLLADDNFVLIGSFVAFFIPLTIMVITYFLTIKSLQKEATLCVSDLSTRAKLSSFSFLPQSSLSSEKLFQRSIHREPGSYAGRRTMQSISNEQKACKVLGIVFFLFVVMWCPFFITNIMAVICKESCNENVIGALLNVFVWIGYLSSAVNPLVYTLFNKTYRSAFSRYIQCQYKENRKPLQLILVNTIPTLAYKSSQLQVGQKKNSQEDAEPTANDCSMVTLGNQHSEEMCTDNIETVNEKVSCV
T1 sequence (P49327 whole entry): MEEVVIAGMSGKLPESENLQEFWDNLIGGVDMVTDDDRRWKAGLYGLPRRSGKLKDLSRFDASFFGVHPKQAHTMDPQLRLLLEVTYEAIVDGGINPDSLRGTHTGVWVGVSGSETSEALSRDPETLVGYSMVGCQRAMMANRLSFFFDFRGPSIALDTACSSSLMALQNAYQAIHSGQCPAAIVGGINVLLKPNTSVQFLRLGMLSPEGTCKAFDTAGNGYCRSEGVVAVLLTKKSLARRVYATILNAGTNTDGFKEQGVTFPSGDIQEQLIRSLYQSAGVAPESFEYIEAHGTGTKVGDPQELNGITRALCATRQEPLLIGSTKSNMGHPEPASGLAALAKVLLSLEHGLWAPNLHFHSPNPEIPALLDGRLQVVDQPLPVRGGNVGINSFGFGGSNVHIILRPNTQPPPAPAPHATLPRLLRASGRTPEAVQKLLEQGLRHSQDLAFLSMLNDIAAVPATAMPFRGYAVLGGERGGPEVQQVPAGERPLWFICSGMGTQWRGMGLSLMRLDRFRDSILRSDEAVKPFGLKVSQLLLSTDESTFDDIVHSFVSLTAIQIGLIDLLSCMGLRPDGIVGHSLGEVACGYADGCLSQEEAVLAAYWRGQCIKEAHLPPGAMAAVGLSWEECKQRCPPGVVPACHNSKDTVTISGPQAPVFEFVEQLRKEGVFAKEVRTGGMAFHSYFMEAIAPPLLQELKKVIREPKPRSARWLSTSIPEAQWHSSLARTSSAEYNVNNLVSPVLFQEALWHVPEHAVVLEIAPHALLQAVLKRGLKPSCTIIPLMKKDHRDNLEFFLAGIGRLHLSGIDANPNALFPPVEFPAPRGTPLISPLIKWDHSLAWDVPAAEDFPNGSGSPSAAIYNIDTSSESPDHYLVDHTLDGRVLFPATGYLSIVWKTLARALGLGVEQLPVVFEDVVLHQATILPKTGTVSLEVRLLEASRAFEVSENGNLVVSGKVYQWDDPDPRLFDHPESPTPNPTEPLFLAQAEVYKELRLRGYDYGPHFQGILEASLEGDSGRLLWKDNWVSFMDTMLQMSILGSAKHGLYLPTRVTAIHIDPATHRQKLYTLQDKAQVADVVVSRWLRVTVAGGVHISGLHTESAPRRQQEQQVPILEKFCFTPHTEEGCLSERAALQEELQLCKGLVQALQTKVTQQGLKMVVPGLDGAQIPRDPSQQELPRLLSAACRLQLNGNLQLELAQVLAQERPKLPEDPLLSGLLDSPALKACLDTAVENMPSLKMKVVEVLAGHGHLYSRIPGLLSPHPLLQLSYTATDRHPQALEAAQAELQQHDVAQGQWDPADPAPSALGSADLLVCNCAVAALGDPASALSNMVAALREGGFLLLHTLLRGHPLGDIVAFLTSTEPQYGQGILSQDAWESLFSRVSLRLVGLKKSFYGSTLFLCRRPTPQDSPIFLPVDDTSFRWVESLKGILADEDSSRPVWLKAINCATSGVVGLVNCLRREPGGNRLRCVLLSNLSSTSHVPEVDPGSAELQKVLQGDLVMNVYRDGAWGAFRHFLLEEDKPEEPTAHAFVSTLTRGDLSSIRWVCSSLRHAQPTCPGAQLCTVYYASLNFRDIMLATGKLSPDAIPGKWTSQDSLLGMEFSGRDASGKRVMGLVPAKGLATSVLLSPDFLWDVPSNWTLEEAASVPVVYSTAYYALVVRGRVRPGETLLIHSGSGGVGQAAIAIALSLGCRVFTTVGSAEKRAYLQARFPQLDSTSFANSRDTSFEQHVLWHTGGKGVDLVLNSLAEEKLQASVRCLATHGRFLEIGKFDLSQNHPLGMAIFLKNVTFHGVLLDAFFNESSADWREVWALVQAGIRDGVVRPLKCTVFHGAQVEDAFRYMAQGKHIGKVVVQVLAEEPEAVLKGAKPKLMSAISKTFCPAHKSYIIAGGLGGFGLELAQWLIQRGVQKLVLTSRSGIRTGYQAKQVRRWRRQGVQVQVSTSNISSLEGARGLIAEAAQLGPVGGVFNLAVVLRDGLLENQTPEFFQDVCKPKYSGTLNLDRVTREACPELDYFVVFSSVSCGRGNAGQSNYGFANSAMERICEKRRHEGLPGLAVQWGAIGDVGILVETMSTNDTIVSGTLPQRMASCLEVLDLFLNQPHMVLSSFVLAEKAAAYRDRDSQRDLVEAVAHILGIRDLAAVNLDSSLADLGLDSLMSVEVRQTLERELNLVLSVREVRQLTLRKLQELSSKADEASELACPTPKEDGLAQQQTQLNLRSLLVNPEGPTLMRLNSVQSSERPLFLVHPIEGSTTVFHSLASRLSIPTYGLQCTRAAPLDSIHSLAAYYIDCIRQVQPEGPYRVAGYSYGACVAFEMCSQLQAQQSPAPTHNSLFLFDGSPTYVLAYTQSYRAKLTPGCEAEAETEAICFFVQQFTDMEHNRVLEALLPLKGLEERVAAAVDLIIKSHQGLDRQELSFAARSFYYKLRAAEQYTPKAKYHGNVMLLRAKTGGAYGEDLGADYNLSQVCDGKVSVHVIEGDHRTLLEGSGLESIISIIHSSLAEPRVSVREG
T2 sequence (P65502 whole entry): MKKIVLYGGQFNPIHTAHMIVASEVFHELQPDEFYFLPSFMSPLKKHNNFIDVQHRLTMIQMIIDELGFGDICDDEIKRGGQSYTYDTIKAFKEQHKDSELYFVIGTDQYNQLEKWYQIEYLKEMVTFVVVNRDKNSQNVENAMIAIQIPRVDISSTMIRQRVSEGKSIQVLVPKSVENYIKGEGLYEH
Beta-galactosidase, sequence (Q8VNN2 whole entry): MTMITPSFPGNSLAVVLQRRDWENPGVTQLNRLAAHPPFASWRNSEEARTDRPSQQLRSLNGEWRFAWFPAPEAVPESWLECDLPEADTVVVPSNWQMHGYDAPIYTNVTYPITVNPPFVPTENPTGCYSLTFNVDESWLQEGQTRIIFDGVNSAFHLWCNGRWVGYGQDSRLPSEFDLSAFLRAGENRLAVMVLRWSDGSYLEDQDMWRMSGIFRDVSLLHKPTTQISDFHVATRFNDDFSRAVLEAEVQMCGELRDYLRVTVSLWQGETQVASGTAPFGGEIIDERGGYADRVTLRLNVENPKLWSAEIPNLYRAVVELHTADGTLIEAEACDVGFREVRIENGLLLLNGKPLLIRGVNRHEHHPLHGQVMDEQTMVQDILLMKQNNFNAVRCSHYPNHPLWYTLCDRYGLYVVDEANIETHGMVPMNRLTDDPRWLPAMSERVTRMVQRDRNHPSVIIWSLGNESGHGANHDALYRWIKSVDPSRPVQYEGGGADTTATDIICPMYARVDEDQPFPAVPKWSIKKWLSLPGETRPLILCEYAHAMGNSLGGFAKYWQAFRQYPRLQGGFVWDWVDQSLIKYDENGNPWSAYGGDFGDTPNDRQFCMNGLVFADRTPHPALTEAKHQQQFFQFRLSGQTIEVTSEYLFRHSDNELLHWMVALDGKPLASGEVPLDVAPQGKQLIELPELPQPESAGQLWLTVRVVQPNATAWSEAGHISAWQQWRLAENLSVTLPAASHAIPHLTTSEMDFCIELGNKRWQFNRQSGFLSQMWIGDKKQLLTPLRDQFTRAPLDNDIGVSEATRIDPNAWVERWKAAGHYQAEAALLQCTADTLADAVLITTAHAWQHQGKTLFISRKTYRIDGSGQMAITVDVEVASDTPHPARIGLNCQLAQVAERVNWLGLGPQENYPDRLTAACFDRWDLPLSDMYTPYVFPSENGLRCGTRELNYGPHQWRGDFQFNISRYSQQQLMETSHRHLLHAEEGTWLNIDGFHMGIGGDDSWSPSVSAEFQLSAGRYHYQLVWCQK
Mu-type opioid receptor, sequence (P35372 whole entry): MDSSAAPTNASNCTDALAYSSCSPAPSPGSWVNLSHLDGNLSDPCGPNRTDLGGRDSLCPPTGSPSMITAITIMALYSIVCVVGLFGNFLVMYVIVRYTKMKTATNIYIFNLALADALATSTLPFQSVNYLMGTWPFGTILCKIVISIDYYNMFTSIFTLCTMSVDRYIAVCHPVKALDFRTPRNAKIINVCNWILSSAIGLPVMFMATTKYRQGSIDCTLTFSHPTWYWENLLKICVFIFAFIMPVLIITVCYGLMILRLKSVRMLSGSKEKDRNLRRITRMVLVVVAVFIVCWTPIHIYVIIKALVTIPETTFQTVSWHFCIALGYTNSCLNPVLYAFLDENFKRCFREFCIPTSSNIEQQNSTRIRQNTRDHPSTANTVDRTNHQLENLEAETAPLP
Melanocortin receptor 4, sequence (P32245 whole entry): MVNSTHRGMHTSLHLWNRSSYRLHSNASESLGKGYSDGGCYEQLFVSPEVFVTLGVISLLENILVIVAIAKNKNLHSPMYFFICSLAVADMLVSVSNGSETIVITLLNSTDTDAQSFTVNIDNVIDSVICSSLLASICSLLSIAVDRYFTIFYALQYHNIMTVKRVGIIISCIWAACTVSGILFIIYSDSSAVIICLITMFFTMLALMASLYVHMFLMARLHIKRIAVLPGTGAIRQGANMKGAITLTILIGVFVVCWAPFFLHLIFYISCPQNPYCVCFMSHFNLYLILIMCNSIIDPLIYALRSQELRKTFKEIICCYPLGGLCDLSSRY

CN1CCc2c(sc(/N=C/c3cc(Cl)ccc3O)c2C#N)C1
EC50 [1]: 76.1 µM (inactive)
EC50 [2]: 5.07 µM (active)
EC50 [3]: 34.8 µM (active)
EC50 [4]: 92.4 µM (inactive)
EC50 [5]: 7.13 µM (active)

Cc1noc(C)c1S(=O)(=O)Nc1ccc2c(c1)CC(=O)N([C@H](C)CO)C[C@@H](C)[C@@H](CN(C)Cc1ccc(C(F)(F)F)cc1)O2
AC50 [6]: 5.96 µM (active)

COc1ccc(N2CCN(C(=O)c3cc(=O)c4cc(C)ccc4o3)CC2)cc1
IC50 [7]: > 80 µM (inactive)

C[C@H](CO)N1C[C@H](C)[C@@H](CN(C)Cc2ccncc2)Oc2c(NC(=O)c3ccc(-c4nccs4)cc3)cccc2C1=O
AC50 [6]: 20 µM (inactive)

NC1CCc2cc(O)c(O)cc2C1 (centres undefined)
EC50 [1]: 0.0131 µM (active)
EC50 [4]: 92.5 µM (inactive)
IC50 [8]: > 80 µM (inactive)

N#CC(CCc1ccccc1[N+](=O)[O-])(CCc1ccccc1[N+](=O)[O-])C(N)=O
IC50 [9]: 12 µM (active)
IC50 [10]: 11.4 µM (active)

COCCN1C(=O)c2cc(C(=O)Nc3ccc(C)c(F)c3)ccc2C1Nc1ccc(C)c(F)c1 (centres undefined)
IC50 [7]: > 80 µM (inactive)

COc1ccc(N2CCN(C(=O)c3ccc4[nH]c(C)c(C)c4c3)CC2)cc1
IC50 [7]: > 80 µM (inactive)

C[C@H](CO)N1C[C@H](C)[C@H](CN(C)Cc2ccc(C(F)(F)F)cc2)Oc2ccc(NC(=O)Nc3cccc4ccccc34)cc2CC1=O
AC50 [6]: 1.05 µM (active)

[O-][S+](c1ccccc1O)[S+]([O-])c1ccccc1O (centres undefined)
IC50 [11]: 3.33 µM (active)
IC50 [8]: 54.1 µM (inactive)
IC50 [12]: 9.15 µM (active)
IC50 [13]: 68 µM (active)

COc1cc(OC)c(N2CC(C(=O)NCCC3=CCCCC3)CC2=O)cc1Cl (centres undefined)
IC50 [9]: 11.8 µM (active)
IC50 [10]: 9.83 µM (active)

Cc1cccc2sc(NNC(=O)c3cc(-c4cccs4)nc4ccccc34)nc12
EC50 [14]: 16.2 µM (active)
EC50 [15]: 0.889 µM (active)
CC50 [16]: 11.5 µM (active)
EC50 [17]: > 180 µM (inactive)
EC50 [18]: 10.7 µM (inconclusive)
IC50 [11]: 13.3 µM (active)
EC50 [19]: 0.507 µM (active)
EC50 [20]: 2.14 µM (active)
IC50 [12]: 26.7 µM (active)

O=C(Nc1nccs1)c1cc(S(=O)(=O)N2CCOCC2)c(Cl)cc1Cl
IC50 [21]: > 64.6 µM (inactive)
IC50 [22]: > 64.6 µM (inactive)

Cc1ccc2[nH]c(SCC(=O)Nc3ccc(F)c([N+](=O)[O-])c3)nc2c1
IC50 [9]: 8 µM (active)
IC50 [10]: 6.64 µM (active)

C[C@H]1CN([C@@H](C)CO)C(=O)Cc2cc(NC(=O)Nc3cccc4ccccc34)ccc2O[C@@H]1CN(C)Cc1ccc(-c2ccccc2)cc1
AC50 [6]: 7.08 µM (active)

CN(c1ccc(C(=O)N2CCN(Cc3ccccc3)CC2)cc1)S(=O)(=O)c1ccc(Cl)cc1
EC50 [1]: 2.82 µM (active)
EC50 [4]: 92.4 µM (inactive)

CNCCc1c[nH]c2ccc(O)cc12
EC50 [1]: 1.73 µM (active)
EC50 [4]: 92.4 µM (inactive)

Cc1nnc(-c2cccc(Br)c2)c2cn(-c3cccc(Br)c3)nc12
IC50 [21]: > 64.6 µM (inactive)
IC50 [23]: > 100 µM (inactive)
EC50 [24]: > 60 µM (not active)
EC50 [25]: 1.65 µM (active)
IC50 [22]: > 64.6 µM (inactive)

CC1(C)CC(=O)C(C(C2=C(O)CC(C)(C)CC2=O)c2cccs2)C(=O)C1 (centres undefined)
IC50 [21]: > 64.6 µM (inactive)
IC50 [22]: 29.9 µM (inactive)
IC50 [26]: 73 µM (active)
IC50 [13]: 46.3 µM (active)

CC1(C(=O)Nc2ccc(Cl)c(Cl)c2)CCN1C(=O)CC1CCCC1 (centres undefined)
IC50 [9]: 4.39 µM (active)
IC50 [10]: 8.5 µM (active)

COC(=O)C1CCN(CCCOc2ccc(CN3CCN(c4ccc([N+](=O)[O-])cc4)CC3)cc2)CC1
EC50 [1]: 0.57 µM (active)
EC50 [4]: 92.6 µM (inactive)

C[C@@H]1CN([C@@H](C)CO)C(=O)Cc2cc(NC(=O)Nc3ccc(F)cc3)ccc2O[C@@H]1CN(C)Cc1ccc(C(F)(F)F)cc1
AC50 [6]: 4.91 µM (active)
